Data from patent publication US20230181537A1, “Translation Blockers Repurposed for COVID-19 Therapy” (priority 2020, published 2023).

Key:
[1] = tested on: SARS-CoV-2 USA-WA1/2020; type: cell-based; conditions: for viral infectivity (plaque assay): Vero-E6, MOI 0.0002, drug at 1 uM; for anti-viral activity against CoV2 infection of Vero-C6 cells: Vero-C6 (African green monkey kidney cells), dose response; for viral infectivity (number of plaques): Vero-E6, MOI 0.0001 or 0.0002, drugs added after infection at 1 uM and 10 uM
[2] = tested on: APP 5′UTR; assay: High-throughput transfection-based APP 5′UTR luciferase reporter assay in SH-SY5Y cells; type: cell-based; conditions: high-throughput screen
[3] = tested on: SARS-CoV-2; assay: Anti-viral efficacy assay by immunocytochemical fluorescence in infected Vero E6 cells; type: cell-based
Text: 9A: Typical anti-viral efficacy assays conducted for the top COVID-19 inhibitors from a range of APP 5′UTR-directed inhibitors. In this exemplary case, Vero E6 cells were infected with SARS-CoV-2 at a multiplicity of infection of 0.1 and treated either with DMSO (negative control) or compound at the indicated concentrations. At 2 days post infection, cells were fixed and stained with an antibody against SARS-CoV-2 nucleocapsid protein. Cell nuclei were stained with DAPI. Infection rates quantified using Qupath software. 9B: Densitometric quantitation of JTR-009 dependent inhibition of Spike protein in COVID-19 infected Vero E6 cells (based on levels of Spike immunocytochemistry shown).
Initial virus assays were performed to experimentally test the benzimidazole APP 5′UTR directed translation blocker-9 (JTR-9) (FIG. 9). […] We tested JTR-009 for possible antiviral efficacy potentially via the related the CRRM motifs in the replicase open reading frame (ORF) related to the APP 5′UTR. We employed immunocytochemical fluorescence of Spike Protein as readout for viral infectivity. […] Therapeutic activity is being tested via the two CRRM RNA motifs in the virus replicase (FIG. 9).

[4] = tested on: APP 5′UTR / IRP1; conditions: refs [25,27]; cited from earlier work
[5] = tested on: APP mRNA; conditions: refs [25,27]; cited from earlier work

Row | SMILES | viral infectivity (plaque assay) [1] | anti-viral activity against CoV2 infection of Vero-C6 cells [1] | viral infectivity (number of plaques) [1] | inhibition of APP 5′UTR driven expression of a Luciferase reporter gene [2] [%] | also measured
1 | CCC12C=CCN3CC[C@@]4(c5ccc(OC)cc5N(C)[C@H]4[C@@](O)(C(=O)OC)[C@@H]1OC(C)=O)[C@@H]32 (mixture of isomers) [B1, vindoline] | reduced viral infectivity |  |  |  | 
2 | CCCSc1ccc2nc(NC(=O)OC)[nH]c2c1 [Albendazole] |  | dose responsive anti-viral activity | inhibited viral infectivity | 92.2 | 
3 | COC(=O)Nc1nc2ccc(Sc3ccccc3)cc2[nH]1 [Fenbendazole] |  |  |  | 91.5 | 
4 | Cc1ccc2[nH]c(-c3ccc(N)cc3)nc2c1 [JTR-009] |  | dose responsive anti-viral activity | inhibited viral infectivity |  | inhibition of COVID-19 viral spike protein (densitometric quantitation) ([3]; FIGS. 9A-B): inhibited COVID-19 viral spike protein; COVID-19 infectivity (immunocytochemical fluorescence of Spike Protein as readout) ([3]; MOI 0.1, 2 days post infection): dose-dependently inhibited COVID-19 infectivity; binding of the APP 5′UTR to its cognate RNA binding protein, IRP1 [4]: prevented binding; APP mRNA translation [5]: reduced APP mRNA translation
5 | Cc1c(OCC(F)(F)F)ccnc1C[S+]([O-])c1nc2ccccc2[nH]1 (stereo not shown) [Lansoprazole] |  | dose responsive anti-viral activity | inhibited viral infectivity |  | 
6 | CN1CC[C@]2(C)c3cc(OC(=O)Nc4ccccc4)ccc3N(C)[C@H]12 [Posiphen, posiphen] | reduced viral infectivity |  |  |  | 
7 | CC(O)(CCOP(=O)(O)OP(=O)(O)O)CC(=O)O (stereo not drawn) [Syn-516] | reduced viral infectivity |  |  |  | 
8 | CCCOc1ccc2nc(NC(=O)OC)[nH]c2c1 [oxibendazole] |  |  |  | 85.9 | 
